# Results: ChEMBL document CHEMBL3885861, “Open TG-GATES”
# Species: Rattus norvegicus
# Experiment: Open TG-GATES - Regimen: Daily Repeat
# Assay type: toxicity, organism-based, Sprague-Dawley
# Design: regimen Daily Repeat, gender Male, age 6 weeks
# Conditions: in vivo, po, 50 mg/kg, route gavage, dose level Low; for APTT / Bas / Eos / Fbg / Hb / Ht / Lym / MCH / MCHC / MCV / Mono / Neu / PT / Plat / RBC / Ret / WBC: tissue Blood; for KIDNEY_L / KIDNEY_R / KIDNEY_TOTAL: tissue Kidney; for LIVER: tissue Liver; for A/G / ALP / ALT / AST / BUN / CRE / Ca / Cl / DBIL / GLC / IP / K / LDH / Na / PL / RALB / TBIL / TC / TG / TP / gamma-GTP: tissue Plasma
structure (smiles),measurement,setting,value
NNC(=O)c1ccncc1 [ISONIAZID],TERMINAL_BW,"72 h, time 3 day",220.3 g
same,APTT,"72 h, time 3 day",14.6 s
same,Bas,"72 h, time 3 day",0%
same,Eos,"72 h, time 3 day",1.2%
same,Fbg,"72 h, time 3 day",242.2 mg/dL
same,Hb,"72 h, time 3 day",13.6 g/dL
same,Ht,"72 h, time 3 day",40.6%
same,Lym,"72 h, time 3 day",73.4%
same,MCH,"72 h, time 3 day",21.8 pg
same,MCHC,"72 h, time 3 day",33.4%
same,MCV,"72 h, time 3 day",65.3 fL
same,Mono,"72 h, time 3 day",11.8%
same,Neu,"72 h, time 3 day",13.8%
same,PT,"72 h, time 3 day",12 s
same,Plat,"72 h, time 3 day",113 x10_4/uL
same,RBC,"72 h, time 3 day",622.8 x10_4/ul
same,Ret,"72 h, time 3 day",7.5%
same,WBC,"72 h, time 3 day",85.3 x10_2/uL
same,KIDNEY_L,"72 h, time 3 day",1 g
same,KIDNEY_R,"72 h, time 3 day",1 g
same,KIDNEY_TOTAL,"72 h, time 3 day",2 g
same,LIVER,"72 h, time 3 day",11.3 g
same,A/G,"72 h, time 3 day",1.8
same,ALP,"72 h, time 3 day",862.8 IU/L
same,ALT,"72 h, time 3 day",23.2 IU/L
same,AST,"72 h, time 3 day",57 IU/L
same,BUN,"72 h, time 3 day",16.6 mg/dL
same,CRE,"72 h, time 3 day",0.5 mg/dL
same,Ca,"72 h, time 3 day",10.7 mg/dL
same,Cl,"72 h, time 3 day",104.6 meq/L
same,DBIL,"72 h, time 3 day",0.008 mg/dL
same,GLC,"72 h, time 3 day",225.2 mg/dL
same,IP,"72 h, time 3 day",8.3 mg/dL
same,K,"72 h, time 3 day",4.8 meq/L
same,LDH,"72 h, time 3 day",108.6 IU/L
same,Na,"72 h, time 3 day",140.2 meq/L
same,PL,"72 h, time 3 day",145.4 mg/dL
same,RALB,"72 h, time 3 day",3.8 g/dL
same,TBIL,"72 h, time 3 day",0.3 mg/dL
same,TC,"72 h, time 3 day",79.2 mg/dL
same,TG,"72 h, time 3 day",98 mg/dL
same,TP,"72 h, time 3 day",5.9 g/dL
same,gamma-GTP,"72 h, time 3 day",1 IU/L
same,TERMINAL_BW,"[…], time 7 day",247.3 g
same,TERMINAL_BW,"[…], time 14 day",307.2 g
same,TERMINAL_BW,"[…], time 28 day",372.9 g
same,APTT,"[…], time 7 day",15.7 s
same,Bas,"[…], time 7 day",0%
same,Eos,"[…], time 7 day",1%
same,Fbg,"[…], time 7 day",230.4 mg/dL
same,Hb,"[…], time 7 day",13.8 g/dL
same,Ht,"[…], time 7 day",41.1%
same,Lym,"[…], time 7 day",80.8%
same,MCH,"[…], time 7 day",20.9 pg
same,MCHC,"[…], time 7 day",33.5%
same,MCV,"[…], time 7 day",62.3 fL
same,Mono,"[…], time 7 day",6.8%
same,Neu,"[…], time 7 day",11.2%
same,PT,"[…], time 7 day",12.1 s
same,Plat,"[…], time 7 day",125.4 x10_4/uL
same,RBC,"[…], time 7 day",661.6 x10_4/ul
same,Ret,"[…], time 7 day",6.1%
same,WBC,"[…], time 7 day",118.4 x10_2/uL
same,APTT,"[…], time 14 day",15.7 s
same,Bas,"[…], time 14 day",0%
same,Eos,"[…], time 14 day",1%
same,Fbg,"[…], time 14 day",227.8 mg/dL
same,Hb,"[…], time 14 day",14 g/dL
same,Ht,"[…], time 14 day",41.8%
same,Lym,"[…], time 14 day",79%
same,MCH,"[…], time 14 day",20.1 pg
same,MCHC,"[…], time 14 day",33.5%
same,MCV,"[…], time 14 day",60.1 fL
same,Mono,"[…], time 14 day",7.4%
same,Neu,"[…], time 14 day",12.8%
same,PT,"[…], time 14 day",12 s
same,Plat,"[…], time 14 day",118.6 x10_4/uL
same,RBC,"[…], time 14 day",697.4 x10_4/ul
same,Ret,"[…], time 14 day",5.1%
same,WBC,"[…], time 14 day",137 x10_2/uL
same,APTT,"[…], time 28 day",15.6 s
same,Bas,"[…], time 28 day",0%
same,Eos,"[…], time 28 day",1%
same,Fbg,"[…], time 28 day",227.4 mg/dL
same,Hb,"[…], time 28 day",14.7 g/dL
same,Ht,"[…], time 28 day",44.2%
same,Lym,"[…], time 28 day",86.2%
same,MCH,"[…], time 28 day",19.1 pg
same,MCHC,"[…], time 28 day",33.4%
same,MCV,"[…], time 28 day",57.3 fL
same,Mono,"[…], time 28 day",2.8%
same,Neu,"[…], time 28 day",10%
same,PT,"[…], time 28 day",12 s
same,Plat,"[…], time 28 day",102.2 x10_4/uL
same,RBC,"[…], time 28 day",771.2 x10_4/ul
same,Ret,"[…], time 28 day",3%
same,WBC,"[…], time 28 day",149.4 x10_2/uL
same,KIDNEY_L,"[…], time 7 day",1.1 g
same,KIDNEY_R,"[…], time 7 day",1.1 g
same,KIDNEY_TOTAL,"[…], time 7 day",2.2 g
same,KIDNEY_L,"[…], time 14 day",1.2 g
same,KIDNEY_R,"[…], time 14 day",1.3 g
same,KIDNEY_TOTAL,"[…], time 14 day",2.5 g
same,KIDNEY_L,"[…], time 28 day",1.4 g
same,KIDNEY_R,"[…], time 28 day",1.3 g
same,KIDNEY_TOTAL,"[…], time 28 day",2.7 g
same,LIVER,"[…], time 7 day",12 g
same,LIVER,"[…], time 14 day",14.1 g
same,LIVER,"[…], time 28 day",15.1 g
same,A/G,"[…], time 7 day",1.5
same,ALP,"[…], time 7 day",797.6 IU/L
same,ALT,"[…], time 7 day",20.6 IU/L
same,AST,"[…], time 7 day",60.6 IU/L
same,BUN,"[…], time 7 day",18.4 mg/dL
same,CRE,"[…], time 7 day",0.5 mg/dL
same,Ca,"[…], time 7 day",10.5 mg/dL
same,Cl,"[…], time 7 day",105.6 meq/L
same,DBIL,"[…], time 7 day",0.08 mg/dL
same,GLC,"[…], time 7 day",227.2 mg/dL
same,IP,"[…], time 7 day",8.2 mg/dL
same,K,"[…], time 7 day",5 meq/L
same,LDH,"[…], time 7 day",113 IU/L
same,Na,"[…], time 7 day",139 meq/L
same,PL,"[…], time 7 day",147 mg/dL
same,RALB,"[…], time 7 day",3.6 g/dL
same,TBIL,"[…], time 7 day",0.3 mg/dL
same,TC,"[…], time 7 day",73.2 mg/dL
same,TG,"[…], time 7 day",100.4 mg/dL
same,TP,"[…], time 7 day",6.1 g/dL
same,gamma-GTP,"[…], time 7 day",1 IU/L
same,A/G,"[…], time 14 day",1.6
same,ALP,"[…], time 14 day",683 IU/L
same,ALT,"[…], time 14 day",19 IU/L
same,AST,"[…], time 14 day",58.2 IU/L
same,BUN,"[…], time 14 day",16 mg/dL
same,CRE,"[…], time 14 day",0.6 mg/dL
same,Ca,"[…], time 14 day",10.5 mg/dL
same,Cl,"[…], time 14 day",105.8 meq/L
same,DBIL,"[…], time 14 day",0 mg/dL
same,GLC,"[…], time 14 day",203 mg/dL
same,IP,"[…], time 14 day",8.1 mg/dL
same,K,"[…], time 14 day",5.1 meq/L
same,LDH,"[…], time 14 day",101.6 IU/L
same,Na,"[…], time 14 day",138.2 meq/L
same,PL,"[…], time 14 day",138.6 mg/dL
same,RALB,"[…], time 14 day",3.7 g/dL
same,TBIL,"[…], time 14 day",0.3 mg/dL
same,TC,"[…], time 14 day",68.8 mg/dL
same,TG,"[…], time 14 day",119.2 mg/dL
same,TP,"[…], time 14 day",6 g/dL
same,gamma-GTP,"[…], time 14 day",0.4 IU/L
same,A/G,"[…], time 28 day",1.4
same,ALP,"[…], time 28 day",560.2 IU/L
same,ALT,"[…], time 28 day",14.2 IU/L
same,AST,"[…], time 28 day",55.2 IU/L
same,BUN,"[…], time 28 day",20.4 mg/dL
same,CRE,"[…], time 28 day",0.6 mg/dL
same,Ca,"[…], time 28 day",10.1 mg/dL
same,Cl,"[…], time 28 day",104.8 meq/L
same,DBIL,"[…], time 28 day",0.042 mg/dL
same,GLC,"[…], time 28 day",208.6 mg/dL
same,IP,"[…], time 28 day",7.3 mg/dL
same,K,"[…], time 28 day",4.5 meq/L
same,LDH,"[…], time 28 day",87.4 IU/L
same,Na,"[…], time 28 day",141.4 meq/L
same,PL,"[…], time 28 day",138.6 mg/dL
same,RALB,"[…], time 28 day",3.6 g/dL
same,TBIL,"[…], time 28 day",0.2 mg/dL
same,TC,"[…], time 28 day",66.4 mg/dL
same,TG,"[…], time 28 day",131.2 mg/dL
same,TP,"[…], time 28 day",6.1 g/dL
same,gamma-GTP,"[…], time 28 day",1.4 IU/L
